From patent US10815219B2, “2,4-diaminoquinazoline derivatives for inhibiting endoplasmic reticulum (ER) stress” (The Board of Regents of the University of Oklahoma, priority 2017, dated 2020)

Experiments:
βTC6 cells = assay: βTC6 cell viability after Tm treatment (CellTiter-Glo); assay type: cell-based; settings: Tm 0.25 μg/mL, 72 h, FIG. 3B
Description: (§1) To rule out the possibility of an ATP-specific (rather than viability) effect of the compounds, we used the MTT assay, which measures the activity of NAD(P)H-dependent cellular oxidoreductase enzymes, as an orthogonal method to measure cell viability. […] To confirm that the protective effect of 9c on β cells is not INS-1 cell-specific, another β cell line, βTC6, was used. […] To determine whether the protective effect of 9c on β cells is specific to Tm-induced stress, we used another ER stressor, BFA, which inhibits a key guanine nucleotide exchange factor essential for the transport of proteins from the ER to the Golgi, to treat INS-1 cells.
(§2) INS-1 cells or βTC6 cells were seeded at 3×10^3 cells/well in a 384-well plate and treated with compounds at the indicated concentrations. After 3 d treatment, the medium was aspirated and 20 μL/well of CellTiter-Glo reagent (Promega, WI, USA) was added for the detection of intracellular ATP levels. Cell viability was measured with an EnVision multilabel plate reader (PerkinElmer, MA, USA).

INS-1 cells = assay: INS-1 cell viability after BFA treatment (CellTiter-Glo); assay type: cell-based, rat; settings: BFA 0.2 μg/mL, 9c 20 μM, 72 h, FIG. 3D
Description: as §1, §2

PDX1 and MafA mRNA = assay: qRT-PCR of β cell transcription factors in Tm-treated INS-1 cells; assay type: cell-based, rat; settings: Tm 0.1 μg/mL, 9c 20 μM, 24 h, FIG. 5C, D
Description: ER stress also impairs the most important function of β cells: the biosynthesis and secretion of insulin. Multiple steps of insulin synthesis and secretion are impaired under ER stress; they include insulin gene transcription, insulin mRNA stability, protein translation, and the insulin protein secretory process. First, we examined whether compound 9c could rescue Tm-suppressed mRNA levels of insulin genes. […] Second, we examined whether compound 9c affects the expression of β cell transcription factors PDX1 and MafA, which control β cell identity and the expression of insulin genes. Chronic exposure to supraphysiologic concentrations of glucose and its associated ER stress cause the down-regulation of expression of PDX1 and MafA. Consistent with this notion, Tm decreased the levels of PDX1 and MafA mRNA expression levels in INS-1 cells. […] Next, we explored whether compound 9c re-establishes Tm-impaired glucose-stimulated insulin secretion (GSIS).
INS-1 cells were seeded at 4×10^5 cells/well in 6-well plates and treated with compounds for the indicated times. Total RNA was extracted using TRIzol reagent (Invitrogen, Carlsbad, Calif.) according to the manufacturer's protocol, and 2 μg of total RNA was reverse transcribed using a Superscript kit (Invitrogen). […]

primary human β cells = assay: TUNEL staining of primary human islet β cells treated with Tm; assay type: cell-based; settings: primary human islets, Tm 1 μg/mL, 9c 10 μM, 48 h; Tm alone 15%, DMSO 2.5%
Description: We determined whether 9c suppresses the apoptosis of primary human β cells induced by Tm treatment as assessed by TUNEL, which detects fragmentation of DNA, a marker of apoptotic cell death. […] Next, we investigated whether 9c restored the Tm-induced insulin secretion defect. […] ER stress induces activation of three branches of UPR (PERK, IRE1α, and ATF6), leading to up-regulation of ATF4, XBP1s, Bip, […], CHOP and eventual activation caspase 3 and cell apoptosis, while diminishing the expression of PDX1, MAFA and insulin genes, leading to β cell dysfunction. Compound 9c protects β cell against ER stress-mediated dysfunction and death by down-regulating ATF4, XBP1s, Bip, GRP94, CHOP, and caspase 3 and up-regulating PDX1, MAFA and insulin genes.
Primary human islets were washed with PBS and fixed with 4% paraformaldehyde for 30 min. Fixed cells were then blocked in 5% normal donkey serum for 30 min. Polyclonal guinea pig anti-insulin (A0564, Dako, 1:500 dilution) was used as primary antibody. Donkey Cy3 anti-guinea pig IgG was used as the secondary antibody. TUNEL staining was performed with In Situ Cell Death Detection Kit-Fluorescein (Roche) according to the manufacturer's instructions. DAPI was used for nuclear counter-staining. Images were taken with an Olympus FV1000 confocal microscope.

[1] = system: cleaved caspase-3 and PARP; assay: Western blotting of cleaved caspase-3 and cleaved PARP in Tm-treated INS-1 cells; assay type: cell-based, rat; settings: Tm 0.1 μg/mL, 9c 20 μM, 24 h, FIG. 4A
Experimental: To determine whether the increase in cell viability following treatment with 9c was caused by a suppression of apoptotic cell death, levels of cleaved caspase-3 and cleaved PARP were assessed by Western blotting. Caspase-3, a member of executioner caspases, plays essential roles in initiating apoptotic signaling and executing the final stages of cell death as it is responsible for the proteolytic cleavage of many key proteins, such as the nuclear enzyme poly (ADP-ribose) polymerase (PARP) which is a family of proteins involved in a number of cellular processes involving DNA repair and cell death. […] However, upon severe ER stress, caspase 3 undergoes proteolytic cleavage to produce two subunits that dimerize to form the active enzyme, which in turns cleaves PARP.
INS-1 cells were seeded in 60-mm dishes at 8×10^5 cells/dish and treated for the indicated times. Cells were then washed with PBS and lysed with lysis buffer (Cell Signaling Technology, Danvers, Mass.) containing EDTA (Thermo, IL) and phosphatase inhibitors (Thermo). Aliquots of 20 μg total protein were separated on 7% SDS-PAGE gels (Life Technologies) and transferred to PVDF membranes (Life Technologies). The membranes were probed with primary antibodies followed by the appropriate HRP-conjugated secondary antibodies (goat anti-rabbit IgG and goat anti-mouse IgG, 1:3000; Santa Cruz Biotechnology, CA, USA). […]

XBP1s mRNA = assay: XBP1 splicing (qRT-PCR and RT-PCR) in Tm-treated INS-1 cells; assay type: cell-based, rat; settings: Tm 0.1 μg/mL, 9c 20 μM
Description: Next, we investigated the mechanism by which 9c protects β cells against ER stress. In response to ER stress, all three branches of the UPR, IRE1α, PERK and ATF6, are activated to either restore cellular homeostasis/survival or lead to cell death, depending on the severity of ER stress. First, we asked whether 9c affects the activation of IRE1α in β cells under ER stress. Activated IRE1α cleaves X-box binding protein-1 (XBP1) mRNA to generate a spliced form (XBP1s) that is translated into a potent transcription factor which controls expression of UPR genes encoding factors involved in ER protein folding and degradation. We therefore determined the effect of 9c on IRE1α-mediated XBP1 splicing in INS-1 cells in the presence of Tm.
INS-1 cells were seeded at 4×10^5 cells/well in 6-well plates and treated with compounds for the indicated times. Total RNA was extracted using TRIzol reagent (Invitrogen, Carlsbad, Calif.) according to the manufacturer's protocol, and 2 μg of total RNA was reverse transcribed using a Superscript kit (Invitrogen). Real-time PCR was performed in 96-well format using SYBR Select Master Mix (Applied Biosystems, Foster City, Calif.) with an ABI 7500 PCR system (Applied Biosystems). The primer sequences used are shown in U.S. Ser. No. 62/542,408, Aug. 8, […].

COc1ccc(CNc2nc(N3CCCCC3CO)nc3ccccc23)cc1 (racemic) [Compound 9c, (1-(4-((4-methoxybenzyl)amino)quinazolin-2-yl)piperidin-2-yl)methanol]
viability of βTC6 cells (intracellular ATP level) (βTC6 cells): rescued the viability of βTC6 cells in a dose-dependent manner | viability of INS-1 cells against BFA (INS-1 cells): protected INS-1 cells against BFA | PDX1 and MafA mRNA expression levels (PDX1 and MafA mRNA): almost completely reversed this decrease to normal levels | percentage of TUNEL+ insulin+ cells (primary human β cells): 3.5% | cleaved caspase-3 and cleaved PARP protein levels [1]: significantly reversed Tm-induced cleavage of both caspase-3 and PARP | XBP1s mRNA (qRT-PCR) (XBP1s mRNA; FIG. 6A): suppressed | XBP1s mRNA (RT-PCR, electrophoretic separation of spliced and unspliced forms) (XBP1s mRNA; FIG. 6B): inhibits the Tm-induced generation of XBP1s mRNA
